16 compounds from PMC11800497, “Antifungal activity and biocompatibility assessment with molecular docking and dynamic simulations of new pyrazole derivatives” (BMC Biotechnology, 2025) can be followed below.

Holding throughout (test): Well-diffusion antifungal activity
In general terms: Agar diffusion results depend on both activity and mobility in agar.

One assay deals with A. niger ATCC 11414. The assay is classed as cell-based, Aspergillus niger. As to conditions: for zone of inhibition at 1000 µg/mL: Aspergillus niger, read-out: IZD; for AI (activity index): relative to Fluconazole 1000 µg/ml.
For a further assay, the system named is R. oryzae ATCC 96382. The assay is classed as cell-based, Rhizopus oryzae. Conditions: Rhizopus arrhizus, read-out: IZD. The procedure:
(§1) This study investigated strains of four distinct fungal pathogens: Aspergillus flavus ATCC 9643, A. niger ATCC 11414, Rhizopus oryzae ATCC 96382, and Penicillium chrysogenum ATCC 10106. Every strain was acquired from the Dep. of Micro. Fac. Agric., […] Uni., in Egypt. Initially kept and preserved in malt agar medium at 4 °C, the pathogens were then grown overnight at 28 °C in malt broth medium to evaluate the antifungal activity. Fungal pathogen standard inoculum was prepared by following the procedure described by. To assess the antifungal activity, the pathogens were first maintained and stored at 4 °C in malt agar medium. They were then cultured in malt broth medium for a whole night at 28 °C. According to [22], the well-diffusion technique was used to test the antifungal activity. This included using a 9.0 mm cork borer that had been sterilized to create wells in the malt agar layer. […] After adding 1000 μg/ml of control pyrazole compounds and the standard antifungal (Fluconazole 1000 μg/ml) to each well, the petri dishes were incubated at 28 °C for 72 h. The diameter of the standard reference antifungal was compared to the millimeters measurements of the inhibitory zones. The formula according to [22] was utilized to compute the activity index (AI).1 [drawing 1]

Another assay has as its system A. flavus ATCC 9643. The assay is classed as cell-based, Aspergillus flavus. As to conditions: for zone of inhibition at 1000 µg/mL: Aspergillus flavus, read-out: IZD. The procedure:
as §1

Assay [1] concerns P. chrysogenum ATCC 10106. The assay is classed as cell-based, Penicillium chrysogenum. As to conditions: for zone of inhibition at 1000 µg/mL: Penicillium chrysogenum, read-out: IZD; for AI (activity index): relative to Fluconazole 1000 µg/ml. On the procedure:
as §1

The mark [2] stands for this setting: ATCC11414, 1000 µg/ml, 72 h, 28 °C.
The mark [3] stands for this setting: ATCC96382, 1000 µg/ml, 72 h, 28 °C.
Where [4] appears, read: ATCC9643, 1000 µg/ml, 72 h, 28 °C.
Where [5] appears, read: ATCC10106, 1000 µg/ml, 72 h, 28 °C.

Read-outs that look alike come from different tables or passages of the source. Marks after values point to notes of the source that are not given here.

Procedure for A. niger ATCC 11414: This study investigated strains of four distinct fungal pathogens: Aspergillus flavus ATCC 9643, A. niger ATCC 11414, Rhizopus oryzae ATCC 96382, and Penicillium chrysogenum ATCC 10106. Every strain was acquired from the Dep. of Micro. Fac. Agric., […] Uni., in Egypt. Initially kept and preserved in malt agar medium at 4 °C, the pathogens were then grown overnight at 28 °C in malt broth medium to evaluate the antifungal activity. Fungal pathogen standard inoculum was prepared by following the procedure described by [19, 20]. To assess the antifungal activity, the pathogens were first maintained and stored at 4 °C in malt agar medium. They were then cultured in malt broth medium for a whole night at 28 °C. According to [22], the well-diffusion technique was used to test the antifungal activity. This included using a 9.0 mm cork borer that had been sterilized to create wells in the malt agar layer. […] After adding 1000 μg/ml of control pyrazole compounds and the standard antifungal (Fluconazole 1000 μg/ml) to each well, the petri dishes were incubated at 28 °C for 72 h. The diameter of the standard reference antifungal was compared to the millimeters measurements of the inhibitory zones. The formula according to [22] was utilized to compute the activity index (AI).1 [drawing 1]

In the case of `N#C/C(=C\c1cn(-c2ccccc2)nc1-c1ccccc1)C(=O)Nc1ccc(Cl)cc1` [3d], the zone of inhibition at 1000 µg/mL (in the assay on A. niger ATCC 11414 (setting [2]); in the assay with R. oryzae ATCC 96382 (setting [3]); in the assay on A. flavus ATCC 9643 (setting [4]); in assay [1] (setting [5])) was 0 mm each time.

Take `Cc1ccc(N=Nc2ccc3oc(=O)c(C(=O)NN=Cc4cn(-c5ccccc5)nc4-c4ccccc4)cc3c2)cc1` [10b]: the IZD in the assay with A. niger ATCC 11414 (1000 µg/ml, 72 h, 28 °C) is 28 ± 0.12^c mm; in assay [1] (1000 µg/ml, 72 h, 28 °C), 20 ± 0.13^e mm. For the same compound, the “AI (activity index)” value (in the assay with A. niger ATCC 11414 (1000 µg/ml); in assay [1] (1000 µg/ml)) was 0.87 in each case. For the same compound, the zone of inhibition at 1000 µg/mL in the assay on A. niger ATCC 11414 (setting [2]) is 28 mm; in the assay with R. oryzae ATCC 96382 (setting [3]), 0 mm; in the assay on A. flavus ATCC 9643 (setting [4]) it was 0 mm; in assay [1] (setting [5]), 20 mm.

Consider `O=Cc1cn(-c2ccccc2)nc1-c1ccccc1` [compound 1, 1,3-diphenyl-1H-pyrazole-4-carbaldehyde], for which the zone of inhibition at 1000 µg/mL in the assay with A. niger ATCC 11414 (ATCC11414, 72 h) was 0 mm; in the assay with R. oryzae ATCC 96382 (ATCC96382, 72 h), 0 mm; in the assay on A. flavus ATCC 9643 (ATCC9643, 72 h) it was 0 mm; in assay [1] (ATCC10106, 72 h), 0 mm.

For the compound `OC(Cn1cncn1)(Cn1cncn1)c1ccc(F)cc1F` [Fluconazole, reference compound], the zone of inhibition at 1000 µg/mL in the assay on A. niger ATCC 11414 (setting [2]) came to 32 ± 0.2 mm; with R. oryzae ATCC 96382 (setting [3]), 20.99 ± 0.05 mm; in the assay on A. flavus ATCC 9643 (setting [4]), 30.02 ± 0.05 mm; in assay [1] (setting [5]), 23.1 ± 0.06 mm.

`Cc1ccc(NC(=O)/C(C#N)=C/c2cn(-c3ccccc3)nc2-c2ccccc2)cc1` [3a]: the zone of inhibition at 1000 µg/mL (with A. niger ATCC 11414 (setting [2]); with R. oryzae ATCC 96382 (setting [3]); in the assay on A. flavus ATCC 9643 (setting [4]); in assay [1] (setting [5])) was 0 mm throughout.

Take `N#C/C(=C\c1cn(-c2ccccc2)nc1-c1ccccc1)C(=O)Nc1ccc(C(=O)O)cc1` [3e]: the zone of inhibition at 1000 µg/mL (in the assay with A. niger ATCC 11414 (setting [2]); with R. oryzae ATCC 96382 (setting [3]); in the assay with A. flavus ATCC 9643 (setting [4]); in assay [1] (setting [5])) was 0 mm throughout.

With `N#Cc1c(-c2cn(-c3ccccc3)nc2-c2ccccc2)[nH][nH]c1=O` [compound 7], the zone of inhibition at 1000 µg/mL is 0 mm with A. niger ATCC 11414 (setting [2]), 0 mm in the assay on R. oryzae ATCC 96382 (setting [3]), 0 mm in the assay on A. flavus ATCC 9643 (setting [4]) and 13 ± 0.11 mm in assay [1] (setting [5]). The “AI (activity index)” value in assay [1] (1000 µg/ml) came to 0.56.

Consider `N#C/C(=C\c1cn(-c2ccccc2)nc1-c1ccccc1)C(=O)Nc1nc2ccccc2s1` [3h], for which the zone of inhibition at 1000 µg/mL in the assay on A. niger ATCC 11414 (setting [2]) was 0 mm; with R. oryzae ATCC 96382 (setting [3]) it was 0 mm; in the assay on A. flavus ATCC 9643 (setting [4]), 0 mm; in assay [1] (setting [5]), 15 ± 0.25 mm. Further, in assay [1] (1000 µg/ml), the “AI (activity index)” value came out at 0.65.

For the compound `CN(C)C=C1C(=O)NN=C(c2cn(-c3ccccc3)nc2-c2ccccc2)C1=O` [compound 12], the IZD with A. niger ATCC 11414 (1000 µg/ml, 72 h, 28 °C) is on record as 25 ± 0.08^f mm; in the assay on A. flavus ATCC 9643 (1000 µg/ml, 72 h, 28 °C), 23 ± 0.02^d mm. In addition, the “AI (activity index)” value in the assay with A. niger ATCC 11414 (1000 µg/ml) is reported as 0.78. Besides, the zone of inhibition at 1000 µg/mL with A. niger ATCC 11414 (setting [2]) was 25 mm; in the assay with R. oryzae ATCC 96382 (setting [3]), 0 mm; in the assay with A. flavus ATCC 9643 (setting [4]), 23 mm; in assay [1] (setting [5]), 0 mm.

Regarding `O=C(NN=Cc1cn(-c2ccccc2)nc1-c1ccccc1)c1cc2ccccc2oc1=O` [10a], the zone of inhibition at 1000 µg/mL (in the assay on A. niger ATCC 11414 (setting [2]); in the assay on R. oryzae ATCC 96382 (setting [3]); with A. flavus ATCC 9643 (setting [4]); in assay [1] (setting [5])) was 0 mm in each case.

For the compound `N#C/C(=C\c1cn(-c2ccccc2)nc1-c1ccccc1)C(=O)Nc1ccc([N+](=O)[O-])cc1` [3f], the zone of inhibition at 1000 µg/mL (with A. niger ATCC 11414 (setting [2]); in the assay on R. oryzae ATCC 96382 (setting [3]); in the assay on A. flavus ATCC 9643 (setting [4]); in assay [1] (setting [5])) was 0 mm in each case.

Consider `N#CCC(=O)NN=Cc1cn(-c2ccccc2)nc1-c1ccccc1` [compound 8], for which the zone of inhibition at 1000 µg/mL (in the assay on A. niger ATCC 11414 (setting [2]); in the assay on R. oryzae ATCC 96382 (setting [3]); in the assay on A. flavus ATCC 9643 (setting [4]); in assay [1] (setting [5])) was 0 mm throughout.

For the compound `N#C/C(=C\c1cn(-c2ccccc2)nc1-c1ccccc1)C(=O)Nc1ccc(Br)cc1` [3c], the zone of inhibition at 1000 µg/mL (with A. niger ATCC 11414 (setting [2]); with R. oryzae ATCC 96382 (setting [3]); in the assay with A. flavus ATCC 9643 (setting [4]); in assay [1] (setting [5])) was 0 mm throughout.

Regarding `N#C/C(=C\c1cn(-c2ccccc2)nc1-c1ccccc1)C(=O)Nc1nccs1` [3g], the “AI (activity index)” value in the assay on A. niger ATCC 11414 (1000 µg/ml) is given as 0.56. Moreover, the zone of inhibition at 1000 µg/mL in the assay on A. niger ATCC 11414 (setting [2]) was 18 ± 0.77 mm; in the assay on R. oryzae ATCC 96382 (setting [3]), 0 mm; in the assay on A. flavus ATCC 9643 (setting [4]) it was 0 mm; in assay [1] (setting [5]) it was 0 mm.

Take `CN(C)/C=C(\C#N)C(=O)N/N=C/c1cn(-c2ccccc2)nc1-c1ccccc1` [compound 11]: the zone of inhibition at 1000 µg/mL (in the assay on A. niger ATCC 11414 (setting [2]); in the assay on R. oryzae ATCC 96382 (setting [3]); in the assay with A. flavus ATCC 9643 (setting [4]); in assay [1] (setting [5])) was 0 mm throughout.

Regarding `O=C1OC(=O)c2c(Br)c(Br)c(Br)c(Br)c21` [compound 5, 4,5,6,7 tetrabromoisobenzofuran-1,3-dione], the zone of inhibition at 1000 µg/mL (with A. niger ATCC 11414 (setting [2]); with R. oryzae ATCC 96382 (setting [3]); in the assay on A. flavus ATCC 9643 (setting [4]); in assay [1] (setting [5])) was 0 mm each time.
